# From article PMC5013675, “Nucleotide binding by the widespread high-affinity cyclic di-GMP receptor MshEN domain” (Nature Communications, 2016)
# How the values were obtained:
# Format in all cases: binding
# VcMshEN_N L54A/L58A = test system: VcMshEN_N L54A/L58A
# VcMshEN L10A-L54A-L58A = test system: VcMshEN L10A-L54A-L58A
# VcMshEN G11L = target: VcMshEN G11L
# VcMshEN_N L10A = test system: VcMshEN_N L10A
# VcMshEN_N L25A = test system: VcMshEN_N L25A
# VcMshEN_N G11L = test system: VcMshEN_N G11L
# VcMshEN_N G40I = test system: VcMshEN_N G40I
# VcMshEN_N L25A/L29A = test system: VcMshEN_N L25A/L29A
# VcMshEN L10A/L58A = target: VcMshEN L10A/L58A
# VcMshEN_N L10A/L54A/L58A = test system: VcMshEN_N L10A/L54A/L58A
compound,measurement,setting,value
"Nc1nc2c(ncn2[C@@H]2O[C@@H]3CO[P@](=O)(O)O[C@H]4[C@@H](O)[C@H](n5cnc6c(=O)[nH]c(N)nc65)O[C@@H]4CO[P@](=O)(O)O[C@H]3[C@H]2O)c(=O)[nH]1 [c-di-GMP, Cyclic dimeric GMP]","Melting temperature Tm, + c-di-GMP",VcMshEN_N L54A/L58A,54 ºC
same,c-di-GMP binding in vitro,VcMshEN L10A-L54A-L58A,abrogates the ability of VcMshEN to bind c-di-GMP
same,Dissociation constant (KD),VcMshEN G11L,abrogated c-di-GMP binding
same,"Melting temperature Tm, + c-di-GMP",VcMshEN_N L10A,56 ºC
same,"Melting temperature Tm, + c-di-GMP",VcMshEN_N L25A,60 ºC
same,"Melting temperature Tm, + c-di-GMP",VcMshEN_N G11L,52 ºC
same,"Melting temperature Tm, + c-di-GMP",VcMshEN_N G40I,56 ºC
same,"Melting temperature Tm, + c-di-GMP",VcMshEN_N L25A/L29A,59 ºC
same,Tm Difference,VcMshEN_N L25A/L29A,9 ºC
same,Dissociation constant (KD),VcMshEN L10A/L58A,cannot bind c-di-GMP
same,Fold reduction of binding affinity,VcMshEN L10A/L58A,> 100
same,"Melting temperature Tm, + c-di-GMP",VcMshEN_N L10A/L54A/L58A,53 ºC
